Reference: patent US20070191435A1, “HYDROCHLORIDE SALT OF 5-[4-[2-(N-METHYL-N-(2-PYRIDYL)AMINO)ETHOXY]BENZYL]THIAZOLIDINE-2,4-DIONE” (SmithKline Beecham p.l.c., priority 2000, published 2007)

What was measured:
[1] = Solid state stability of the drug substance, assayed by HPLC; format: physicochemical; conditions: 1 month
Method: The solid state stability of the drug substance was determined by storing approximately 1.0 g of the material in a glass bottle at a) 40° C./75% Relative Humidity (RH), open exposure, for 1 month and b) at 50° C., closed, for 1 month. […] Solubility of the Hydrochloride

[2] = Solubility in water, visual, confirmed by HPLC assay of a saturated solution; format: physicochemical; conditions: thermodynamic from solid
Source text: The visual solubility was confirmed by an HPLC assay of a saturated solution.

CN(CCOc1ccc(CC2SC(=O)NC2=O)cc1)c1ccccn1.Cl (centres unmarked) [Hydrochloride, 5-[4-[2-(N-methyl-N-(2-pyridyl)amino)ethoxy]benzyl]thiazolidine-2,4-dione hydrochloride]
HPLC assay for final content ([1]; 40° C./75% RH, open exposure): 100 % initial | degradation products (HPLC) ([1]; 40° C./75% RH, open exposure): No significant degradation observed | HPLC assay for final content ([1]; 50° C., closed): 101 % initial | degradation products (HPLC) ([1]; 50° C., closed): No significant degradation observed | solubility [2]: 25 mg/mL
